The assay relates to Rabies virus. In kind it is cell-based.

As for ranpirnase, the “activity against rabies (SI, FIG. 1)” value is “extraordinarily active”.

The values above are taken from patent US9919034B2, “Methods of treating and prophylactically protecting mammalian patients infected by viruses classified in Baltimore group V” (priority 2014, dated 2018).
